Data published in patent US20220144854A1, “MACROCYCLIC COMPOUNDS” (ZENO MANAGEMENT, INC., priority 2019, published 2022).
Where two headings read alike, the source gives them in different places. One block for each compound: values may come before it.

Columns and labels:
[1] = test system: NCI-H929 (ATCC CRL-9068) cells; assay: NCI-H929 cell proliferation assay (CellTiter-Glo); type: cell-based; conditions: 72 h of compound treatment
Protocol: Cell proliferation was measured using the CellTiter-Glo® Luminescent Cell Viability Assay. The assay involved the addition of a single reagent (CellTiter-Glo® Reagent) directly to cells cultured in serum-supplemented medium.
Each compound evaluated was prepared as a DMSO stock solution (10 mM). Compounds were tested in duplicate on each plate, with a 10-point serial dilution curve (1:3 dilution). Compound treatment ([…]) was added from the compound dilution plate to the cell plate. The highest compound concentration was 10 μM (final), with a 0.1% final DMSO concentration. Plates were then incubated at 37° C., 5% CO2. After 72 h of compound treatment, cell plates were equilibrated at rt for approximately 30 mins. An equi-volume amount of CellTiter-Glo® Reagent (40 μL) was added to each well. Plates were mixed for 2 mins on an orbital shaker to induce cell lysis and then incubated at rt for 10 mins to stabilize the luminescent signal. Luminescence was recorded using an Envision plate reader according to CellTiter-Glo protocol. IC50 of each compound was calculated using GraphPad Prism by nonlinear regression analysis.

Mcl-1 = Mcl-1 (Homo sapiens, UniProt Q07820); assay: Mcl-1 Homogeneous Time Resolved Fluorescence (HTRF) binding assay
[2] = HTRF, 4 nM Mcl-1, 100 nM FAM-Bak peptide, 10-dose, singlicate, read-out: Mcl-1 IC50

Chain of Mcl-1 (Q07820 whole entry): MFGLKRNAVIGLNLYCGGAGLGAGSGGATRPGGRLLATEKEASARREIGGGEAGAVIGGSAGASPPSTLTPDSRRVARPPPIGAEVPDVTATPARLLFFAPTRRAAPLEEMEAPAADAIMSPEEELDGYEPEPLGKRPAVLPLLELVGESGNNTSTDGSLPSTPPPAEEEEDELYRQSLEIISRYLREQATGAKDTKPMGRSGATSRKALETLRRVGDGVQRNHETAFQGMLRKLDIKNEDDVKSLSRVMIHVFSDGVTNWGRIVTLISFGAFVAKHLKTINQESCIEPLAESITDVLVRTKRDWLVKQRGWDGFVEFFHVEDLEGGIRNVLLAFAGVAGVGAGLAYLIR

Compound: Cn1nc2cc1CSc1cc(c3ccccc3c1)OCCCc1c(C(=O)O)n(C)c3c(c(Cl)ccc13)-c1c(nn3c1CCCC3)CSC2 (single isomer, unassigned) [Example 2B, (Z)-1^6-Chloro-1^1,6^1-dimethyl-2^4,2^5,2^6,2^7-tetrahydro-1^1H,6^1H-10-oxa-4,8-dithia-2(3,2)-pyrazolo[1,5-a]pyridina-1(7,3)-indola-6(3,5)-pyrazola-9(3,1)-naphthalenacyclotridecaphane-1^2-carboxylic acid]
IC50 [1]: > 1000 nM
IC50 (Mcl-1; [2]): 10 to 100 nM

Compound: Cn1nc2cc1CSc1cc(c3ccccc3c1)OCCCc1c(C(=O)O)n(C)c3c(c(Cl)ccc13)-c1c(nn3c1CCCC3)CSC2 (single isomer, unassigned) [Example 2A, (Z)-1^6-Chloro-1^1,6^1-dimethyl-2^4,2^5,2^6,2^7-tetrahydro-1^1H,6^1H-10-oxa-4,8-dithia-2(3,2)-pyrazolo[1,5-a]pyridina-1(7,3)-indola-6(3,5)-pyrazola-9(3,1)-naphthalenacyclotridecaphane-1^2-carboxylic acid]
IC50 [1]: < 100 nM
IC50 (Mcl-1; [2]): < 10 nM

Compound: Cn1nc2cc1CSc1cc(c3ccccc3c1)OCCCc1c(C(=O)O)n(C)c3c(c(Cl)ccc13)-c1c(nn3c1CSC3)CSC2 (single isomer, unassigned) [Example 5A, (Z)-1^6-Chloro-1^1,6^1-dimethyl-1^1H,2^4H,2^6H,6^1H-10-oxa-4,8-dithia-2(3,2)-pyrazolo[1,5-c]thiazola-1(7,3)-indola-6(3,5)-pyrazola-9(3,1)-naphthalenacyclotridecaphane-1^2-carboxylic acid]
IC50 [1]: 100 to 1000 nM
IC50 (Mcl-1; [2]): < 10 nM

Compound: Cc1nn(C23CC(C2)C3)c2c1-c1c(Cl)ccc3c(c(C(=O)O)n(C)c13)CCCOc1cc(cc3ccccc13)SCc1cc(nn1C)CSC2 (single isomer, unassigned) [Example 20B, (Z)-2^1-(Bicyclo[1.1.1]pentan-1-yl)-1^6-chloro-1^1,2^3,6^1-trimethyl-1^1H,2^1H,6^1H-10-oxa-4,8-dithia-1(7,3)-indola-2(4,5),6(3,5)-dipyrazola-9(3,1)-naphthalenacyclotridecaphane-1^2-carboxylic acid]
IC50 [1]: < 100 nM
IC50 (Mcl-1; [2]): < 10 nM

Compound: Cn1nc2cc1CSc1cc(c3ccccc3c1)OCCCc1c(C(=O)O)n(C)c3c(c(Cl)ccc13)-c1c(nn3c1COCC3)CSC2 (single isomer, unassigned) [Example 4B, (Z)-1^6-Chloro-1^1,6^1-dimethyl-2^6,2^7-dihydro-1^1H,2^4H,6^1H-10-oxa-4,8-dithia-2(3,2)-pyrazolo[5,1-c][1,4]oxazina-1(7,3)-indola-6(3,5)-pyrazola-9(3,1)-naphthalenacyclotridecaphane-1^2-carboxylic acid]
IC50 [1]: > 1000 nM
IC50 (Mcl-1; [2]): 10 to 100 nM

Compound: Cc1nn(C)c2c1-c1c(F)ccc3c(c(C(=O)O)n(C)c13)CCCOc1cc(cc3ccccc13)SCc1cc(nn1C(C)C)CSC2 (single isomer, unassigned) [Example 16A, (Z)-1^6-Fluoro-6^1-isopropyl-1^1,2^1,2^3-trimethyl-1^1H,2^1H,6^1H-10-oxa-4,8-dithia-1(7,3)-indola-2(4,5),6(3,5)-dipyrazola-9(3,1)-naphthalenacyclotridecaphane-1^2-carboxylic acid]
IC50 [1]: < 100 nM
IC50 (Mcl-1; [2]): < 10 nM

Compound: Cn1nc2cc1CSc1cc(c3ccccc3c1)OCCCc1c(C(=O)O)n(C)c3c(c(Cl)ccc13)-c1c(nn3c1CCC3)CSC2 (single isomer, unassigned) [Example 3B, (Z)-1^6-Chloro-1^1,6^1-dimethyl-2^5,2^6-dihydro-1^1H,2^4H,6^1H-10-oxa-4,8-dithia-1(7,3)-indola-2(3,2)-pyrrolo[1,2-b]pyrazola-6(3,5)-pyrazola-9(3,1)-naphthalenacyclotridecaphane-1^2-carboxylic acid]
IC50 [1]: > 1000 nM
IC50 (Mcl-1; [2]): 10 to 100 nM

IC50 ([1]; Homo sapiens): < 100 nM
IC50 (Mcl-1; Mcl-1 IC50 (nM)): < 10 nM
Compound: Cc1c2c(nn1C)CSCc1cc(n[nH]1)CSc1cc(c3ccccc3c1)OCCCc1c(C(=O)O)n(C)c3c-2c(Cl)ccc13 (single isomer, unassigned) [Example 11B, (Z)-1^6-Chloro-1^1,2^1,2^5-trimethyl-1^1H,2^1H,6^1H-10-oxa-4,8-dithia-1(7,3)-indola-2(4,3),6(3,5)-dipyrazola-9(3,1)-naphthalenacyclotridecaphane-1^2-carboxylic acid]

Compound: CCn1nc2cc1CSc1cc(c3ccccc3c1)OCCCc1c(C(=O)O)n(C)c3c(c(F)ccc13)-c1c(C)nn(C)c1CSC2 (single isomer, unassigned) [Example 15A, (Z)-6^1-Ethyl-1^6-fluoro-1^1,2^1,2^3-trimethyl-1^1H,2^1H,6^1H-10-oxa-4,8-dithia-1(7,3)-indola-2(4,5),6(3,5)-dipyrazola-9(3,1)-naphthalenacyclotridecaphane-1^2-carboxylic acid]
IC50 ([1]; Homo sapiens, NCI-H929, 72 h): > 1000 nM
IC50 (Mcl-1; [2]): > 100 nM

Compound: Cc1[nH]nc2c1-c1c(Cl)ccc3c(c(C(=O)O)n(C)c13)CCCOc1cc(cc3ccccc13)SCc1cc(nn1C(C)C)CSC2 (single isomer, unassigned) [Example 9A, (Z)-1^6-Chloro-6^1-isopropyl-1^1,2^5-dimethyl-1^1H,2^1H,6^1H-10-oxa-4,8-dithia-1(7,3)-indola-2(4,3),6(3,5)-dipyrazola-9(3,1)-naphthalenacyclotridecaphane-1^2-carboxylic acid]
IC50 ([1]; Homo sapiens, NCI-H929, 72 h): 100 to 1000 nM
IC50 (Mcl-1; [2]): < 10 nM

Compound: Cc1[nH]nc2c1-c1c(F)ccc3c(c(C(=O)O)n(C)c13)CCCOc1cc(cc3ccccc13)SCc1cc(nn1C(C)C)CSC2 (single isomer, unassigned) [Example 7B, (Z)-1^6-Fluoro-6^1-isopropyl-1^1,2^5-dimethyl-1^1H,2^1H,6^1H-10-oxa-4,8-dithia-1(7,3)-indola-2(4,3),6(3,5)-dipyrazola-9(3,1)-naphthalenacyclotridecaphane-1^2-carboxylic acid]
IC50 (Mcl-1; [2]): < 10 nM

Compound: Cn1nc2cc1CSc1cc(c3ccccc3c1)OCCCc1c(C(=O)O)n(C)c3c(c(Cl)ccc13)-c1c(nn3c1CSC3)CSC2 (single isomer, unassigned) [Example 5B, (Z)-1^6-Chloro-1^1,6^1-dimethyl-1^1H,2^4H,2^6H,6^1H-10-oxa-4,8-dithia-2(3,2)-pyrazolo[1,5-c]thiazola-1(7,3)-indola-6(3,5)-pyrazola-9(3,1)-naphthalenacyclotridecaphane-1^2-carboxylic acid]
IC50 [1]: > 1000 nM
IC50 (Mcl-1; [2]): > 100 nM

Compound: Cc1c2c(nn1C)CSCc1cc(n(C)n1)CSc1cc(c3ccccc3c1)OCCCc1c(C(=O)O)n(C)c3c-2c(F)ccc13 (single isomer, unassigned) [Example 14A, (Z)-1^6-Fluoro-1^1,2^1,2^5,6^1-tetramethyl-1^1H,2^1H,6^1H-10-oxa-4,8-dithia-1(7,3)-indola-2(4,3),6(3,5)-dipyrazola-9(3,1)-naphthalenacyclotridecaphane-1^2-carboxylic acid]
IC50 ([1]; Homo sapiens, NCI-H929, 72 h): < 100 nM
IC50 (Mcl-1; [2]): < 10 nM

Compound: Cc1[nH]nc2c1-c1c(Cl)ccc3c(c(C(=O)O)n(C)c13)CCCOc1cc(cc3ccccc13)SCc1cc(nn1C)CSC2 (single isomer, unassigned) [Example 6A, (Z)-1^6-Chloro-1^1,2^5,6^1-trimethyl-1^1H,2^1H,6^1H-10-oxa-4,8-dithia-1(7,3)-indola-2(4,3),6(3,5)-dipyrazola-9(3,1)-naphthalenacyclotridecaphane-1^2-carboxylic acid]
IC50 [1]: < 100 nM
IC50 (Mcl-1; [2]): < 10 nM

Compound: Cc1nn(C23CC(C2)C3)c2c1-c1c(Cl)ccc3c(c(C(=O)O)n(C)c13)CCCOc1cc(cc3ccccc13)SCc1cc(nn1C)CSC2 (single isomer, unassigned) [Example 20A, (Z)-2^1-(Bicyclo[1.1.1]pentan-1-yl)-1^6-chloro-1^1,2^3,6^1-trimethyl-1^1H,2^1H,6^1H-10-oxa-4,8-dithia-1(7,3)-indola-2(4,5),6(3,5)-dipyrazola-9(3,1)-naphthalenacyclotridecaphane-1^2-carboxylic acid]
IC50 [1]: > 1000 nM
IC50 (Mcl-1; [2]): 10 to 100 nM

Compound: Cc1nn(C23CC(C2)C3)c2c1-c1c(Cl)ccc3c(c(C(=O)O)n(C)c13)CCCOc1cc(cc3ccccc13)SCc1cc(n[nH]1)CSC2 [Example 21A, (Z)-2^1-(Bicyclo[1.1.1]pentan-1-yl)-1^6-chloro-1^1,2^3-dimethyl-1^1H,2^1H,6^1H-10-oxa-4,8-dithia-1(7,3)-indola-2(4,5),6(3,5)-dipyrazola-9(3,1)-naphthalenacyclotridecaphane-1^2-carboxylic acid]
IC50 ([1]; Homo sapiens, NCI-H929, 72 h): > 1000 nM

IC50 [1]: > 1000 nM
Compound: (Z)-6^1-Ethyl-1^6-fluoro-1^1,2^1,2^3-trimethyl-1^1H,2^1H,6^1H-10-oxa-4,8-dithia-1(7,3)-indola-2(4,5),6(3,5)-dipyrazola-9(3,1)-naphthalenacyclotridecaphane-1^2-carboxylic acid [Example 15B]

IC50 ([1]; Homo sapiens, NCI-H929, 72 h): 100 to 1000 nM
Compound: CC(=O)N1CCn2nc3c(c2C1)-c1c(Cl)ccc2c(c(C(=O)O)n(C)c12)CCCOc1cc(cc2ccccc12)SCc1cc(nn1C)CSC3 [Example 24A, (Z)-2^5-Acetyl-1^6-chloro-1^1,6^1-dimethyl-2^4,2^5,2^6,2^7-tetrahydro-1^1H,6^1H-10-oxa-4,8-dithia-2(3,2)-pyrazolo[1,5-a]pyrazina-1(7,3)-indola-6(3,5)-pyrazola-9(3,1)-naphthalenacyclotridecaphane-1^2-carboxylic acid]
